# Reference: US9346754B2, “Method of treating advanced non-alcoholic steatohepatitis” (priority 2014, dated 2016)
# “Also recorded” adds a separate entry of the source.
# How the values were obtained:
# Type in all cases: in vivo, C57BL/6 mice
# [1] = Liver weight and liver-to-body weight ratio in STAM mice
# From the text: Mice in all groups will be sacrificed for the following assays at 12 weeks of age. Individual liver weight will be measured, and liver-to-body weight ratio will be calculated. Liver hydroxyproline will be quantified by a hydrolysis method. Histopathological analyses of liver sections (according to routine methods) HE staining (to estimate NAFLD Activity score), Sirius-red staining (to estimate the percentage of fibrosis area). F4/80 immunostaining (to estimate the percentage of inflammation area), Alpha-SMA immunostaining (to estimate the percentage of a-SMA positive area) are performed. Gene expression assays using total RNA from the liver Real-time RT-PCR analysis will be performed for TIMP-1, Collagen Type 1, α-SMA, 5-lipoxygenase, FLAP and LTC4 synthase are also performed. Statistical tests will be performed using Bonferroni Multiple Comparison Test. P values<0.05 will be considered statistically significant. […] P values<0.05 were considered statistically significant. […] Results were expressed as mean±SD.
# [2] = test system: STAM Model of Advanced Non-Alcoholic Steatohepatitis; assay: HE staining and NAFLD Activity Score (NAS) in STAM mice; parameters: key to NAS (NAFLD Activity Score): NAS scored per Kleiner criteria (Hepatology 2005); details: for NAS (NAFLD Activity Score): mean ± SD; for Number of mice with Steatosis score 0: score 0 = <5%; for Number of mice with Lobular inflammation score 0: score 0 = No foci; for Number of mice with Steatosis score 1: score 1 = 5-33%; for Number of mice with Lobular inflammation score 1: score 1 = <2 foci/200x; for Number of mice with Hepatocyte ballooning score 1: score 1 = Few balloon cells; for Number of mice with Lobular inflammation score 2: score 2 = 2-4 foci/200x; for Number of mice with Steatosis score 2: score 2 = >33-66%; for Number of mice with Hepatocyte ballooning score 2: score 2 = Many cells/prominent ballooning
# Protocol: STAM™ is a useful model for advanced non-alcoholic steatohepatitis (advanced NASH), symptoms thereof, and related liver disorders, created by the combination of chemical and dietary interventions in C57BL/6 mice. In this example, after inducing NASH, it was allowed to reach an advanced stage, and the mice were treated at 8-12 weeks. […] Vehicle, MN-001, and Telmisartan were administered by oral route in a volume of 10 mL/kg. […] For HE staining, sections were cut from paraffin blocks of liver tissue prefixed in Bouin's solution and stained with Lillie-Mayer's Hematoxylin (Muto Pure Chemicals, Japan) and eosin solution (Wako Pure Chemical Industries). NAFLD Activity score (NAS) was calculated according to the criteria of Kleiner (Kleiner D E. et al., Hepatology, 2005; 41:1313). To visualize collagen deposition, Bouin's fixed liver sections were stained using picro-Sirius red solution (Waldeck, Germany). […] P values<0.05 were considered statistically significant. […] Results were expressed as mean±SD. Ten NASH mice were orally administered vehicle supplemented with MN-001 at a dose of 10 mg/kg once daily from 8 to 12 weeks of age. Ten NASH mice were orally administered vehicle supplemented with MN-001 at a dose of 30 mg/kg once daily from 8 to 12 weeks of age. Ten NASH mice were orally administered vehicle supplemented with MN-001 at a dose of 100 mg/kg once daily from 8 to 12 weeks of age. Ten NASH mice were orally administered pure water supplemented with Telmisartan at a dose of 10 mg/kg once daily from 8 to 12 weeks of age.
# [3] = test system: STAM Model of Advanced Non-Alcoholic Steatohepatitis; assay: Alpha-SMA immunostaining, α-SMA-positive area in STAM mice; details: for Alpha-SMA-positive area: mean ± SD
# Protocol: (§1) For immunohistochemistry, sections were cut from frozen liver tissues embedded in Tissue-Tek O.C.T. compound and fixed in acetone. Endogenous peroxidase activity was blocked using 0.03% H2O2 for 5 minutes, followed by incubation with Block Ace (Dainippon Sumitomo Pharma, Japan) for 10 minutes. The sections were incubated with a 200-fold dilution of anti-α-SMA (Epitomics, USA) or anti-F4/80 antibody (BMA Biomedicals, Switzerland) 1 hour at room temperature. […] For quantitative analysis of fibrosis area, inflammation area, and semi-quantification of α-SMA, bright field images of Sirius red-stained, F4/80- and α-SMA-immunostained sections were captured around the central vein using a digital camera (DFC280: Leica Microsystems, Germany) at 200-fold magnification, and the positive areas in 5 fields/section were measured using ImageJ software (National Institute of Health, USA). […] P values<0.05 were considered statistically significant. […] Results were expressed as mean±SD.
# Collagen Type 1 mRNA = assay: Liver gene expression by quantitative RT-PCR: Collagen Type 1
# Protocol: (§2) Total RNA was extracted from liver samples using RNAiso (Takara Bio, Japan) according to the manufacturer's instructions. One μg of RNA was reverse-transcribed using a reaction mixture containing 4.4 mM MgCl2 (F. Hoffmann-La Roche, Switzerland), 40 U RNase inhibitor (Toyobo, Japan), 0.5 mM dNTP (Promega, USA), 6.28 μM random hexamer (Promega), 5× first strand buffer (Promega), 10 mM dithiothreitol (Invitrogen, USA) and 200 U MMLV-RT (Invitrogen) in a final volume of 20 μL. The reaction was carried out for 1 hour at 37° C., followed by 5 minutes at 99° C. Real-time PCR was performed using real-time PCR DICE and SYBR premix Taq (Takara Bio). To calculate the relative mRNA expression level, the expression of each gene was normalized to that of reference gene 36B4 (gene symbol: Rp1p0). Information of PCR-primer sets are described in Table 1. [table] […] P values<0.05 were considered statistically significant. […] Results were expressed as mean±SD.
# Alpha-SMA mRNA = assay: Liver gene expression by quantitative RT-PCR: Alpha-SMA
# Protocol: as §2
# [4] = test system: STAM Model of Advanced Non-Alcoholic Steatohepatitis; assay: F4/80 immunostaining, percentage of inflammation area in STAM mice; details: for F4/80-positive area (inflammation area): mean ± SD
# Protocol: as §1
# TIMP-1 mRNA = assay: Liver gene expression by quantitative RT-PCR: TIMP-1; details: 10 mg/kg oral once daily, 8 to 12 weeks of age (MN-001-low; Telmisartan)
# Protocol: as §2
# [5] = Telmisartan 10 mg/kg oral once daily, 8 to 12 weeks of age
# [6] = 10 mg/kg oral once daily, 8 to 12 weeks of age (MN-001-low n=10; Telmisartan n=9)
# [7] = 10 mg/kg oral once daily, 8 to 12 weeks of age (MN-001-low; Telmisartan)
# [8] = any doses of MN-001 (10, 30, 100 mg/kg oral once daily)
# [9] = all doses of MN-001 (10, 30, 100 mg/kg oral once daily, 8 to 12 weeks of age)
# [10] = high dose, 100 mg/kg oral once daily, 8 to 12 weeks of age
# [11] = 30 mg/kg oral once daily, 8 to 12 weeks of age (MN-001-middle, n=10)
# [12] = 100 mg/kg oral once daily, 8 to 12 weeks of age (MN-001-high, n=10)
# [13] = middle dose, 30 mg/kg oral once daily, 8 to 12 weeks of age
# [14] = 100 mg/kg oral once daily, 8 to 12 weeks of age (MN-001-high)
# [15] = any doses of MN-001 (10, 30, 100 mg/kg oral once daily, 8 to 12 weeks of age)
compound,measurement,setting,value
"CCCc1nc2c(C)cc(-c3nc4ccccc4n3C)cc2n1Cc1ccc(-c2ccccc2C(=O)O)cc1 [Telmisartan, reference compound]",Mean liver weight compared with the Vehicle group,[1]; [5],significantly decreased; also recorded: significant decrease
same,Mean liver-to-body weight ratio compared with the Vehicle group,[1]; [5],significant decrease
same,NAS compared with the Vehicle group,[2]; [5],significantly decreased
same,NAS (NAFLD Activity Score),[2]; [6],2.8 ± 0.8
same,Number of mice with Steatosis score 0,[2]; [6],2
same,Number of mice with Lobular inflammation score 0,[2]; [6],2
same,Number of mice with Steatosis score 1,[2]; [6],7
same,Number of mice with Lobular inflammation score 1,[2]; [6],5
same,Number of mice with Hepatocyte ballooning score 1,[2]; [6],9
same,Number of mice with Lobular inflammation score 2,[2]; [6],2
same,α-SMA-positive area compared with the Vehicle group,[3]; [7],significantly decreased
same,Alpha-SMA-positive area,[3]; [6],0.35 ± 0.14%
same,Collagen Type 1 mRNA expression levels compared with the Vehicle group,Collagen Type 1 mRNA; [5],significantly down-regulated
same,Alpha-SMA mRNA expression levels compared with the Vehicle group,Alpha-SMA mRNA; [5],significantly down-regulated
same,Inflammation area compared with the Vehicle group,[4]; [5],significantly decreased; also recorded: tended to decrease
same,F4/80-positive area (inflammation area),[4]; [6],3.79 ± 1.60%
same,TIMP-1 mRNA expression levels compared with the Vehicle group,TIMP-1 mRNA,significantly down-regulated
CCCc1c(SCCCOc2ccc(C(C)=O)c(OCCCC(=O)O)c2CCC)ccc(C(C)=O)c1O [MN-001],Mean liver weight compared with the Vehicle group,[1]; [8],no significant differences
same,Mean liver-to-body weight ratio compared with the Vehicle group,[1]; [8],no significant differences
same,Hepatocellular ballooning and inflammatory cell infiltration in HE-stained liver sections,[2]; [9],marked improvements
same,NAS compared with the Vehicle group,[2]; [9],significantly decreased
same,Ballooning score,[2]; [10],significantly reduced
same,NAS compared with the Vehicle group,[2]; [10],significantly decreased
same,NAS (NAFLD Activity Score),[2]; [6],3.6 ± 1.4
same,NAS (NAFLD Activity Score),[2]; [11],4.0 ± 0.9
same,NAS (NAFLD Activity Score),[2]; [12],3.1 ± 0.7
same,Ballooning score,[2]; [13],significantly reduced
same,NAS compared with the Vehicle group,[2]; [13],significantly decreased
same,Number of mice with Steatosis score 0,[2]; [6],3
same,Number of mice with Lobular inflammation score 0,[2]; [6],2
same,Number of mice with Lobular inflammation score 0,[2]; [11],1
same,Number of mice with Lobular inflammation score 0,[2]; [12],4
same,Number of mice with Steatosis score 1,[2]; [6],6
same,Number of mice with Steatosis score 1,[2]; [11],7
same,Number of mice with Steatosis score 1,[2]; [12],9
same,Number of mice with Lobular inflammation score 1,[2]; [6],2
same,Number of mice with Lobular inflammation score 1,[2]; [11],6
same,Number of mice with Lobular inflammation score 1,[2]; [12],5
same,Number of mice with Hepatocyte ballooning score 1,[2]; [6],6
same,Number of mice with Hepatocyte ballooning score 1,[2]; [11],5
same,Number of mice with Hepatocyte ballooning score 1,[2]; [12],7
same,Number of mice with Lobular inflammation score 2,[2]; [6],6
same,Number of mice with Lobular inflammation score 2,[2]; [11],3
same,Number of mice with Lobular inflammation score 2,[2]; [12],1
same,Number of mice with Steatosis score 2,[2]; [6],1
same,Number of mice with Steatosis score 2,[2]; [11],3
same,Number of mice with Steatosis score 2,[2]; [12],1
same,Number of mice with Hepatocyte ballooning score 2,[2]; [6],4
same,Number of mice with Hepatocyte ballooning score 2,[2]; [11],5
same,Number of mice with Hepatocyte ballooning score 2,[2]; [12],3
same,α-SMA-positive area compared with the Vehicle group,[3]; [7],significantly decreased
same,α-SMA-positive area compared with the Vehicle group,"[3]; 30 mg/kg oral once daily, 8 to 12 weeks of age (MN-001-middle)",no significant difference
same,α-SMA-positive area compared with the Vehicle group,[3]; [14],significantly decreased
same,Alpha-SMA-positive area,[3]; [6],0.45 ± 0.11%
same,Alpha-SMA-positive area,[3]; [11],0.76 ± 0.19%
same,Alpha-SMA-positive area,[3]; [12],0.48 ± 0.21%
same,Collagen Type 1 mRNA expression levels compared with the Vehicle group,Collagen Type 1 mRNA; [14],tended to decrease
same,α-SMA mRNA expression levels compared with the Vehicle group,Alpha-SMA mRNA; [15],no significant differences
same,Inflammation area compared with the Vehicle group,[4]; [15],no significant differences
same,F4/80-positive area (inflammation area),[4]; [6],6.47 ± 2.67%
same,F4/80-positive area (inflammation area),[4]; [11],6.36 ± 1.59%
same,F4/80-positive area (inflammation area),[4]; [12],5.14 ± 0.89%
same,TIMP-1 mRNA expression levels compared with the Vehicle group,TIMP-1 mRNA,significantly down-regulated
